Results on 20 molecules are retold here after US11224565B2, “N-acyldipeptide derivatives and their uses” (NeoStrata Company, Inc., priority 2011, dated 2022).

Format in all cases: in vivo, human
What all share (conditions): efficacy grade

In assay [1] the test system is Deranged immune disorders and inflammation. As to the kind of experiment: Summary of test results in volunteer subjects: deranged immune disorders and inflammation. The text has this:
(§1) In one embodiment, a composition for topical application to test its therapeutic effect was formulated by dissolving a bioactive dipeptide derivative of the present invention in a solution prepared from 40 parts water, 40 parts ethanol and 20 parts propylene glycol by volume (WEP442). In another embodiment, a composition was formulated by dissolving a bioactive dipeptide derivative of the present invention in a non-aqueous solution prepared from 80 parts ethanol and 20 parts propylene glycol by volume (EP82). In yet another embodiment, a composition was formulated first by dissolving a bioactive dipeptide derivative of the present invention in a solution prepared from 80 parts water and 20 parts propylene glycol by volume (WP82), and the solution thus prepared was mixed with an oil-in-water emulsion or cream. In another embodiment, the volunteer subject topically applied the test compositions containing N-acyldipeptide derivatives of the present invention on involved skin or lesions once or twice daily for several weeks or until the involved lesions completely cleared and clinically changed to normal skin. As a control study, the subject also topically applied a vehicle control composition on the involved skin or lesions twice daily for the same period. In yet another embodiment, the volunteer subject topically applied once or twice daily the test compositions containing N-acyldipeptide derivatives of the present invention on the skin site above arthritic joints or painful muscles to provide therapeutic effects for the systemic disorders via topical administration. Some test results are summarized as follows. DI: Deranged immune disorders and inflammation

For assay [2], the system named is Aging related changes of skin, nail and hair. As to the kind of experiment: Summary of test results in volunteer subjects: aging related changes.
Description: as §1, with “AG: Aging related changes of skin, nail” for “DI: Deranged immune disorders”, “hair” for “inflammation”

The test system of another assay is Nerve disorders. Kind of assay: Summary of test results in volunteer subjects: nerve disorders.
Description: as §1, with “ND: Nerve” for “DI: Deranged immune”, “disorders” for “disorders and inflammation”

The next assay relates to Disturbed keratinization. Kind of assay: Summary of test results in volunteer subjects: disturbed keratinization.
Description: as §1, with “DK: Disturbed keratinization” for “DI: Deranged immune disorders and inflammation”

Peptide text beside a SMILES is read from it.

`CC[C@H](C)[C@H](NC(=O)[C@H](C)NC(C)=O)C(N)=O` [N-Ac-L-Ala-L-Ile-NH2] (Ac-Ala-Ile-NH2): in assay [1], the DI is given as 3+ (3+: 75% Efficacy). Further, the AG in assay [2] was 2+ (2+: 50% Efficacy). The ND in the assay on Nerve disorders is given as 3+ (3+: 75% Efficacy). Besides, the DK in the assay with Disturbed keratinization is 2+ (2+: 50% Efficacy).
Regarding `CC(=O)N[C@@H](CCC(N)=O)C(=O)NCC(N)=O` [N-Ac-L-Gln-Gly-NH2] (Ac-Gln-Gly-NH2), in assay [1], the DI was 2+ (2+: 50% Efficacy). The AG in assay [2] is on record as 2+ (2+: 50% Efficacy). Further, in the assay with Nerve disorders, the ND is recorded as 2+ (2+: 50% Efficacy). Further, the DK in the assay with Disturbed keratinization is recorded as 2+ (2+: 50% Efficacy).
As for `CC(=O)NCCC(=O)N[C@@H](Cc1c[nH]cn1)C(N)=O` [N-Ac-βAla-L-His-NH2], the DI in assay [1] is listed as 2+ (2+: 50% Efficacy). The AG in assay [2] is 2+ (2+: 50% Efficacy). Further, the ND with Nerve disorders is reported as 2+ (2+: 50% Efficacy). For the same molecule, the DK with Disturbed keratinization is given as 2+ (2+: 50% Efficacy).
Turning to `CC(=O)N[C@H](C(=O)NCC(N)=O)C(C)C` [N-Ac-L-Val-Gly-NH2] (Ac-Val-Gly-NH2), the DI in assay [1] is on record as 4+ (4+: 95-100% Efficacy). In addition, in assay [2], the AG is recorded as 2+ (2+: 50% Efficacy). In addition, the ND with Nerve disorders was 4+ (4+: 95-100% Efficacy). The DK in the assay on Disturbed keratinization is 2+ (2+: 50% Efficacy).
Consider `CC(=O)N[C@@H](CC(C)C)C(=O)N[C@@H](C)C(=O)O` [N-Ac-L-Leu-L-Ala-OH] (Ac-Leu-Ala-OH), for which the DI in assay [1] is recorded as 3+ (3+: 75% Efficacy). For the same molecule, the AG in assay [2] is reported as 2+ (2+: 50% Efficacy). Besides, in the assay on Nerve disorders, the ND was 3+ (3+: 75% Efficacy). The DK in the assay with Disturbed keratinization is listed as 2+ (2+: 50% Efficacy).
`CC(=O)N[C@@H](CO)C(=O)NCC(N)=O` [N-Ac-L-Ser-Gly-NH2] (Ac-Ser-Gly-NH2): the DI in assay [1] is given as 2+ (2+: 50% Efficacy). Moreover, the AG in assay [2] is 2+ (2+: 50% Efficacy). Further, in the assay on Nerve disorders, the ND is recorded as 2+ (2+: 50% Efficacy). Besides, the DK in the assay on Disturbed keratinization is recorded as 2+ (2+: 50% Efficacy).
As to `CC(=O)N[C@@H](Cc1ccc(O)cc1)C(=O)NCC(N)=O` [N-Ac-L-Tyr-Gly-NH2], the DI in assay [1] is recorded as 2+ (2+: 50% Efficacy). The AG in assay [2] was 2+ (2+: 50% Efficacy). In the assay on Nerve disorders, the ND is on record as 2+ (2+: 50% Efficacy). The DK with Disturbed keratinization is 2+ (2+: 50% Efficacy).
With `CC(=O)N[C@@H](CC(C)C)C(=O)N[C@@H](CC(C)C)C(N)=O` [N-Ac-L-Leu-L-Leu-NH2], the DI in assay [1] is listed as 2+ (2+: 50% Efficacy). For the same molecule, the AG in assay [2] is given as 2+ (2+: 50% Efficacy). Also, in the assay on Nerve disorders, the ND was 2+ (2+: 50% Efficacy). Also, the DK in the assay with Disturbed keratinization was 2+ (2+: 50% Efficacy).
As for `CC(=O)NCCC(=O)NCC(N)=O` [N-Ac-β-Ala-Gly-NH2], in assay [1], the DI is on record as 2+ (2+: 50% Efficacy). In assay [2], the AG is given as 2+ (2+: 50% Efficacy). Moreover, the ND in the assay on Nerve disorders is 2+ (2+: 50% Efficacy). In addition, the DK with Disturbed keratinization was 2+ (2+: 50% Efficacy).
`CC(=O)N[C@@H](CC(C)C)C(=O)N[C@@H](C)C(N)=O` [N-Ac-L-Leu-L-Ala-NH2] (Ac-Leu-Ala-NH2): in assay [1], the DI is reported as 4+ (4+: 95-100% Efficacy). For the same molecule, the AG in assay [2] is 3+ (3+: 75% Efficacy). Besides, the ND in the assay with Nerve disorders is given as 4+ (4+: 95-100% Efficacy). Moreover, the DK in the assay with Disturbed keratinization is recorded as 3+ (3+: 75% Efficacy).
For the molecule `CC(=O)NCC(=O)NCC(N)=O` [N-Ac-Gly-Gly-NH2], in assay [1], the DI was 2+ (2+: 50% Efficacy). Also, the AG in assay [2] is given as 2+ (2+: 50% Efficacy). Besides, in the assay on Nerve disorders, the ND was 2+ (2+: 50% Efficacy). Moreover, in the assay with Disturbed keratinization, the DK was 2+ (2+: 50% Efficacy).
On to `CC[C@H](C)[C@H](NC(C)=O)C(=O)N[C@@H](C)C(N)=O` [N-Ac-L-Ile-L-Ala-NH2] (Ac-Ile-Ala-NH2), for which the DI in assay [1] was 4+ (4+: 95-100% Efficacy). The AG in assay [2] was 2+ (2+: 50% Efficacy). For the same molecule, the ND in the assay with Nerve disorders was 4+ (4+: 95-100% Efficacy). For the same molecule, the DK with Disturbed keratinization is 2+ (2+: 50% Efficacy).
As for `CC(=O)N[C@@H](Cc1ccccc1)C(=O)N[C@@H](Cc1ccccc1)C(N)=O` [N-Ac-L-Phe-L-Phe-NH2] (Ac-Phe-Phe-NH2), the DI in assay [1] is 2+ (2+: 50% Efficacy). In addition, the AG in assay [2] was 2+ (2+: 50% Efficacy). The ND in the assay on Nerve disorders was 2+ (2+: 50% Efficacy). The DK in the assay on Disturbed keratinization is listed as 2+ (2+: 50% Efficacy).
N-Ac-L-Tyr-L-Hpg-NH2: the DI in assay [1] is 2+ (2+: 50% Efficacy). In assay [2], the AG was 2+ (2+: 50% Efficacy). Also, in the assay on Nerve disorders, the ND is 2+ (2+: 50% Efficacy). Also, the DK in the assay on Disturbed keratinization is listed as 2+ (2+: 50% Efficacy).
As to `CC[C@H](C)[C@H](NC(C)=O)C(=O)N[C@@H](C)C(=O)O` [N-Ac-L-Ile-L-Ala-OH] (Ac-Ile-Ala-OH), the DI in assay [1] is on record as 2+ (2+: 50% Efficacy). Also, the AG in assay [2] was 2+ (2+: 50% Efficacy). The ND in the assay on Nerve disorders was 2+ (2+: 50% Efficacy). Also, in the assay with Disturbed keratinization, the DK was 2+ (2+: 50% Efficacy).
In the case of `CC(=O)N[C@@H](CS)C(=O)NCC(N)=O` [N-Ac-L-Cys-Gly-NH2], in assay [1], the DI was 2+ (2+: 50% Efficacy). Besides, in assay [2], the AG is given as 2+ (2+: 50% Efficacy). Also, the ND in the assay on Nerve disorders is recorded as 2+ (2+: 50% Efficacy). For the same molecule, the DK in the assay on Disturbed keratinization is reported as 2+ (2+: 50% Efficacy).
Consider `CC(=O)NCC(=O)N1CCC[C@H]1C(N)=O` [N-Ac-Gly-L-Pro-NH2] (Ac-Gly-Pro-NH2), for which the DI in assay [1] was 2+ (2+: 50% Efficacy). The AG in assay [2] is 2+ (2+: 50% Efficacy). The ND with Nerve disorders is on record as 2+ (2+: 50% Efficacy). Also, the DK in the assay on Disturbed keratinization was 2+ (2+: 50% Efficacy).
Take `CC[C@H](C)[C@H](NC(=O)[C@@H](NC(C)=O)[C@@H](C)CC)C(N)=O` [N-Ac-L-Ile-L-Ile-NH2] (Ac-Ile-Ile-NH2): the DI in assay [1] is listed as 3+ (3+: 75% Efficacy). Further, the AG in assay [2] is recorded as 2+ (2+: 50% Efficacy). Further, in the assay with Nerve disorders, the ND is 4+ (4+: 95-100% Efficacy). Also, the DK in the assay on Disturbed keratinization is recorded as 3+ (3+: 75% Efficacy).
Consider `CCC(=O)N[C@H](C(=O)N[C@@H](C)C(=O)O)C(C)C` [N-Pr-L-Val-L-Ala-OH] (HELM PEPTIDE1{[CCC(=O)[*:2]].V.A}$$$$V2.0), for which the DI in assay [1] is 3+ (3+: 75% Efficacy). For the same molecule, the AG in assay [2] is on record as 2+ (2+: 50% Efficacy). Also, the ND in the assay with Nerve disorders is 4+ (4+: 95-100% Efficacy). The DK in the assay with Disturbed keratinization is listed as 2+ (2+: 50% Efficacy).
Take `CC(=O)N[C@H](C(=O)N[C@@H](C)C(=O)O)C(C)C` [N-Ac-L-Val-L-Ala-OH] (Ac-Val-Ala-OH): the DI in assay [1] was 3+ (3+: 75% Efficacy). The AG in assay [2] was 2+ (2+: 50% Efficacy). Besides, the ND in the assay with Nerve disorders is reported as 4+ (4+: 95-100% Efficacy). Moreover, in the assay on Disturbed keratinization, the DK was 2+ (2+: 50% Efficacy).
